In patent US6524330B1, “Method of ocular treatment” (priority 2000, dated 2003):
Entries after “also recorded” stand apart in the source; their conditions may differ.

Columns and labels:
choriocapillaris [1] = experiment: Photodynamic therapy with liposomal hypocrellin A in rabbit eyes, yellow laser (568 nm), fundus observation and fluorescein angiography; type: in vivo, Rabbits (Dutch belted pigmented); conditions: for Fluorescein Angiogram 2 hours post PDT / Fluorescein Angiogram 24 hours post PDT: 568 nm, 500 μg/kg i.v. in liposomes
Protocol: (§1) Rabbits (twenty-five Dutch belted pigmented, 2-3 kg body weight), were administered hypocrellin A (Molecular Probes, Eugene, Oreg.) by systemic injection into the ear vein. Animals were anesthetized by intramuscular injection of ketamine hydrochloride (50 mg/kg) and xylazine hydrochloride (5 mg/kg). Pupils were dilated with 2.5% phenylephrine and 0.5% tropicamide.
Hypocrellin A was incorporated into liposomes composed of phosphatidylcholine (PC), phosphatidylglycerol (PG), cholesterol, or dipalmitoyl phosphatidylcholine (DPPC), dipalmitoyl phosphatidylglycerol (DPPG) (Avanti Polar Lipids, Pelham, Ala.), with or without cholesterol, using methods known to one of skill in this art. In general, large unilamellar vesicles (LUV) were formed using the reverse phase evaporation method of Szoka and Papahadjopoulos (Proc. Natl. Acad. Sci. USA 1978; 75:4194-4198). Lipids (100 mg PC, 25 mg PG, and optionally 15 mg cholesterol) and 1 mg hypocrellin A were dissolved in chloroform. The solution was placed in a round flask under rotary evaporation (Buschi Laboratoriums-teenik AG, Flawil, Schewiz) to make a thin film. The dried material was dissolved in 6 ml chloroform and 12 ml ether.
The aqueous phase consisted of 4 ml HEPES buffered saline ([…] NaCI, 2 mM KCI, 10 mM HEPES buffer, pH 7.4, 300 mOsm). This was added to the chloroform/ether solution, the flask was filled with nitrogen gas and subjected to ultrasound at 40° C. for two minutes to form a homogeneous emulsion, which was transferred to a rotary evaporator. At pressures below about 400 mm Hg, the emulsion began to bubble extensively as the organic phase was drawn off. […] The foaming emulsion was vented whenever it neared the top of the flask. Progressively higher vacuum was used to maintain foaming. As the process continued, the foaming decreased. At a pressure of about 100 mm Hg, foaming ceased and the procedure was completed. The process yielded large, negatively charged, unilamellar liposomes with HEPES buffer encapsulated into the aqueous phase and hypocrellin A incorporated into the bilayers of the liposomes. Before injection, the LUV were filtered through 0.8 μm pores.
The hypocrellin preparation was administered as an intravenous bolus into the marginal ear vein. The dose of hypocrellin administered was 500 μg/kg in a volume of about 2 ml. However, doses in the range of about […] may also be administered. Control animals received vehicle (liposomes without hypocrellin A in a saline solution) only.
(§2) After administration of compound, for example, 10-15 minutes after hypocrellin A administration, PDT was initiated upon application of laser irradiation with a dye laser (Coherent, Palo Alto, Calif.). Prior to light application, a lens with a focal length of 25 cm was placed in front of the laser beam to prevent interference with the slit lamp light path and to enlarge the spot size produced by the 500 μm setting of the laser to 2 mm on the retina. A spot size of 2 mm was used throughout. A plano fundus contact lens was placed on the cornea, with methylcellulose gel as a coupler, to null the refraction of the cornea. Animals were positioned in a stereotactic support attached to the slit lamp to maintain precise alignment.
The wavelengths were tested: yellow (568 nm) and red (647 nm). Laser powers were in the range of about 10 mW to about 60 mW. Duration of irradiation was for a minimum of 10 seconds to a maximum of 60 seconds. The photodynamic effect is not only related to the irradiance, but power and duration as well. Fluence (irradiance) is the product of power and duration divided by the spot size, but with a constant spot size, irradiance is a function of power and duration only. Fluence was in the range of 3.2 to 95.5 J/cm^2. […] In one embodiment, the lowest possible power and duration that induce the minimal fluorescein angiographic response is used.
The irradiations were done in the avascular retina, below the optic disc. […]

[2] = cited from earlier work
choriocapillaris [3] = experiment: Photodynamic therapy with hypocrellin A in rabbit eyes, red laser (647 nm), funduscopy and angiography; type: in vivo, Rabbits (Dutch belted pigmented); conditions: 647 nm (red laser); dose of 500 μg/kg systemically; any of the power levels or durations tested
Protocol: as §1
The hypocrellin preparation was administered as an intravenous bolus into the marginal ear vein. […] However, doses in the range of about […] may also be administered. Control animals received vehicle (liposomes without hypocrellin A in a saline solution) only.
as §2, with “alignment. […]” for “alignment.”

choriocapillaris [4] = tested on: choriocapillaris
Protocol: Immediately after the second fluorescein examination, eyes were enucleated and fixed in 2% paraformaldehyde and 3% glutaraldehyde for 24 h. The areas of PDT treatment were surgically excised and specimens were dehydrated in ethanol, embedded in resin, subjected to serial sectioning and staining with 1% toluidine blue for light microscopy.

[5] = power 10 mW, duration 10, 20, 30, 40, 50, 60 sec, irradiance 3.2-19.1 J/cm^2, 2 mm spot
[6] = power 20 mW, duration 10, 20, 30, 40, 50 sec, irradiance 6.4-31.8 J/cm^2
[7] = power 20 mW, duration 60 sec, irradiance 38.2 J/cm^2
[8] = power 30 mW, duration 10, 20, 30 sec, irradiance 9.6-28.6 J/cm^2
[9] = power 30 mW, duration 40, 50, 60 sec, irradiance 38.2-57.3 J/cm^2
[10] = power 40 mW, duration 10 sec, irradiance 12.7 J/cm^2
[11] = power 40 mW, duration 20, 30, 40, 50, 60 sec, irradiance 25.4-76.4 J/cm^2
[12] = power 50 mW, duration 10, 20, 30, 40, 50, 60 sec, irradiance 15.9-95.5 J/cm^2
[13] = power 60 mW, duration 10 sec, irradiance 19.1 J/cm^2
[14] = power 60 mW, duration 20 sec, irradiance 38.2 J/cm^2
[15] = power 60 mW, duration 30 sec, irradiance 57.3 J/cm^2

hypocrellin A
retinal changes in the treated area during or immediately after laser irradiation (choriocapillaris [1]; 568 nm (yellow laser), treated rabbits): no retinal changes
Fluorescein Angiogram 2 hours post PDT (choriocapillaris [1]; [5]): no effect; also recorded: No response
Fluorescein Angiogram 24 hours post PDT (choriocapillaris [1]; [5]): no effect; also recorded: No response
Fluorescein Angiogram 2 hours post PDT (choriocapillaris [1]; [6]): no effect; also recorded: No response
Fluorescein Angiogram 24 hours post PDT (choriocapillaris [1]; [6]): no effect; also recorded: No response
Fluorescein Angiogram 2 hours post PDT (choriocapillaris [1]; [7]): No response
Fluorescein Angiogram 24 hours post PDT (choriocapillaris [1]; [7]): minimal response; also recorded: Minimal H
Fluorescein Angiogram 2 hours post PDT (choriocapillaris [1]; [8]): No response
Fluorescein Angiogram 24 hours post PDT (choriocapillaris [1]; [8]): No response
Fluorescein Angiogram 2 hours post PDT (choriocapillaris [1]; [9]): No response
Fluorescein Angiogram 24 hours post PDT (choriocapillaris [1]; [9]): fluorescence effect was seen and H
Fluorescein Angiogram 2 hours post PDT (choriocapillaris [1]; [10]): No response
Fluorescein Angiogram 24 hours post PDT (choriocapillaris [1]; [10]): No response
Fluorescein Angiogram 2 hours post PDT (choriocapillaris [1]; [11]): no effect; also recorded: No response
Fluorescein Angiogram 24 hours post PDT (choriocapillaris [1]; [11]): fluorescence effect and H
Fluorescein Angiogram 2 hours post PDT (choriocapillaris [1]; [12]): No response
Fluorescein Angiogram 24 hours post PDT (choriocapillaris [1]; [12]): fluorescence effect was observed and H
Fluorescein Angiogram 2 hours post PDT (choriocapillaris [1]; [13]): No response
Fluorescein Angiogram 24 hours post PDT (choriocapillaris [1]; [13]): response visible on the angiogram and fluorescence effect and H
Fluorescein Angiogram 2 hours post PDT (choriocapillaris [1]; [14]): fluorescence effect was seen and H
Fluorescein Angiogram 24 hours post PDT (choriocapillaris [1]; [14]): fluorescence effect was seen and H
Fluorescein Angiogram 2 hours post PDT (choriocapillaris [1]; [15]): fluorescence effect was seen and H
Fluorescein Angiogram 24 hours post PDT (choriocapillaris [1]; [15]): fluorescence effect was seen and H
toxicity in the absence of light [2]: non-toxic
funduscopic or angiographic changes (choriocapillaris [3]): no demonstrable funduscopic or angiographic changes
histologic finding by light microscopy 24 hours after laser irradiation (choriocapillaris [4]; all eyes that developed angiographic changes): occlusion of the choriocapillaris
damage to inner or outer retinal layers (choriocapillaris [4]; light microscopy 24 hours after laser irradiation): No damage to inner or outer retinal layers
